This is an account of results in ChEMBL document CHEMBL2177017, “Vascular endothelial growth factor (VEGF) receptors: drugs and new inhibitors” (J Med Chem, 2012).

Experiment [1] deals with Vascular endothelial growth factor receptor 2 (Homo sapiens, UniProt P35968). The experiment in a line: Inhibition of VEGFR2.
Experiment [2] deals with HepG2. The experiment in a line: Antitumor activity against human HepG2 cells xenografted mouse assessed as inhibition of tumor growth at 100 mg/kg qd for 18 days. It counts as functional. The settings on record: HepG2, 432 h, read-out: TGI.
Experiment [3] is filed under the species Danio rerio. The experiment in a line: Antiangiogenic activity in zebrafish embryos assessed as inhibition of intersegmental vessel growth at 2.5 uM. The experiment is classed as functional, Embryo.
Experiment [4] relates to HUVEC. The experiment in a line: Antiangiogenic activity in HUVEC assessed as inhibition of tube formation at 10 uM. The experiment is classed as functional. Conditions: Homo sapiens.
For experiment [5], the system named is SW-620. Kind of experiment: Antitumor activity against human SW620 cells xenografted mouse assessed as inhibition of tumor growth at 100 mg/kg qd for 18 days. Conditions: SW-620, 432 h, read-out: TGI. It counts as functional. In general terms: In xenograft studies the graft and the host belong to different species.
The target of experiment [6] is Vascular endothelial growth factor receptor 1 (Homo sapiens, UniProt P17948). The experiment in a line: Inhibition of VEGFR1.
Experiment [7] has as its target Fibroblast growth factor receptor 2 (Homo sapiens, UniProt P21802). The experiment in a line: Inhibition of FGFR2.
Experiment [8] has as its target Vascular endothelial growth factor receptor 3 (Homo sapiens, UniProt P35916). Kind of experiment: Inhibition of VEGFR3.
Experiment [9] addresses Fibroblast growth factor receptor 1 (Homo sapiens, UniProt P11362). Kind of experiment: Inhibition of FGFR1.
Experiment [10] addresses Mast/stem cell growth factor receptor Kit (Homo sapiens, UniProt P10721). Kind of experiment: Inhibition of c-Kit.
Experiment [11] has as its target Platelet-derived growth factor receptor beta (Homo sapiens, UniProt P09619). Kind of experiment: Inhibition of PDGFRbeta.
Experiment [12] deals with Mus musculus. The experiment in a line: Antitumor activity against human tumor xenografted athymic mouse assessed as inhibition of tumor growth. It counts as functional.
Experiment [13] in a line: Inhibition of FGFRbeta.
Experiment [14] concerns the target RAF proto-oncogene serine/threonine-protein kinase (Homo sapiens, UniProt P04049). Kind of experiment: Inhibition of c-Raf.
The target of experiment [15] is Tyrosine-protein kinase Lck (Homo sapiens, UniProt P06239). Kind of experiment: Inhibition of LCK.

Chain of Vascular endothelial growth factor receptor 3 (P35916 whole entry): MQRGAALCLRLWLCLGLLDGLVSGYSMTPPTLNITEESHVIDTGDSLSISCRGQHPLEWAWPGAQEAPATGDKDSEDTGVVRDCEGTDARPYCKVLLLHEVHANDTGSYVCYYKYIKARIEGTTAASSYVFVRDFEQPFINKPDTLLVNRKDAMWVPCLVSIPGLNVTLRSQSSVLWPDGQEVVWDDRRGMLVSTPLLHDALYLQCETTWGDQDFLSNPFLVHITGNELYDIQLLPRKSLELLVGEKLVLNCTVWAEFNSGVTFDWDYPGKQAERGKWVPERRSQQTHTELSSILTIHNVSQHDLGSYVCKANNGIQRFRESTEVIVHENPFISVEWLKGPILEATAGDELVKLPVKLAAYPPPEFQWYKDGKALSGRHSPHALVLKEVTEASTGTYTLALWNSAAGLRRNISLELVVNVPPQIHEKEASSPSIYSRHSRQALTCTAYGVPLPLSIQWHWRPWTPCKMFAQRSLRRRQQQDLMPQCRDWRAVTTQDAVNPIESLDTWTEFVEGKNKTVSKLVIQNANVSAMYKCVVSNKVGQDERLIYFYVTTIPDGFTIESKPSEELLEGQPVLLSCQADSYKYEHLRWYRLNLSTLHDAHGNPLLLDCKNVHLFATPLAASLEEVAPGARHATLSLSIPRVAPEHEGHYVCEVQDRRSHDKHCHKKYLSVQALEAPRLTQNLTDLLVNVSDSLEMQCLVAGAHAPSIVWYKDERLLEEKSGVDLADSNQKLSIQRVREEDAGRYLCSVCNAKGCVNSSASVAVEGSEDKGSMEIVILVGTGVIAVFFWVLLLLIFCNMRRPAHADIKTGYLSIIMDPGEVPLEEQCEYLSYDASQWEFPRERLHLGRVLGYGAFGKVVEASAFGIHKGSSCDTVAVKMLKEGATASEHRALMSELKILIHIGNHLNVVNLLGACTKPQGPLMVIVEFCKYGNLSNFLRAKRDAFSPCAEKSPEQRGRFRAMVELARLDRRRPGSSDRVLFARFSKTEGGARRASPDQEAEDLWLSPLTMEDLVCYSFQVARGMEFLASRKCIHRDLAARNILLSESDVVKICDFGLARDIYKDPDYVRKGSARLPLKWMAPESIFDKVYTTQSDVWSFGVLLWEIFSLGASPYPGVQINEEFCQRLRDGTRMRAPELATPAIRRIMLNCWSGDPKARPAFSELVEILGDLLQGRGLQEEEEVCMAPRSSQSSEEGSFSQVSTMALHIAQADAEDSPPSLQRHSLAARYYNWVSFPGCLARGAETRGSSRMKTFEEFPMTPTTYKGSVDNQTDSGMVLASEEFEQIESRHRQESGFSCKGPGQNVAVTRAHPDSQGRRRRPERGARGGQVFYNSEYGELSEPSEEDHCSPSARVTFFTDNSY
Chain of Vascular endothelial growth factor receptor 2 (P35968 whole entry): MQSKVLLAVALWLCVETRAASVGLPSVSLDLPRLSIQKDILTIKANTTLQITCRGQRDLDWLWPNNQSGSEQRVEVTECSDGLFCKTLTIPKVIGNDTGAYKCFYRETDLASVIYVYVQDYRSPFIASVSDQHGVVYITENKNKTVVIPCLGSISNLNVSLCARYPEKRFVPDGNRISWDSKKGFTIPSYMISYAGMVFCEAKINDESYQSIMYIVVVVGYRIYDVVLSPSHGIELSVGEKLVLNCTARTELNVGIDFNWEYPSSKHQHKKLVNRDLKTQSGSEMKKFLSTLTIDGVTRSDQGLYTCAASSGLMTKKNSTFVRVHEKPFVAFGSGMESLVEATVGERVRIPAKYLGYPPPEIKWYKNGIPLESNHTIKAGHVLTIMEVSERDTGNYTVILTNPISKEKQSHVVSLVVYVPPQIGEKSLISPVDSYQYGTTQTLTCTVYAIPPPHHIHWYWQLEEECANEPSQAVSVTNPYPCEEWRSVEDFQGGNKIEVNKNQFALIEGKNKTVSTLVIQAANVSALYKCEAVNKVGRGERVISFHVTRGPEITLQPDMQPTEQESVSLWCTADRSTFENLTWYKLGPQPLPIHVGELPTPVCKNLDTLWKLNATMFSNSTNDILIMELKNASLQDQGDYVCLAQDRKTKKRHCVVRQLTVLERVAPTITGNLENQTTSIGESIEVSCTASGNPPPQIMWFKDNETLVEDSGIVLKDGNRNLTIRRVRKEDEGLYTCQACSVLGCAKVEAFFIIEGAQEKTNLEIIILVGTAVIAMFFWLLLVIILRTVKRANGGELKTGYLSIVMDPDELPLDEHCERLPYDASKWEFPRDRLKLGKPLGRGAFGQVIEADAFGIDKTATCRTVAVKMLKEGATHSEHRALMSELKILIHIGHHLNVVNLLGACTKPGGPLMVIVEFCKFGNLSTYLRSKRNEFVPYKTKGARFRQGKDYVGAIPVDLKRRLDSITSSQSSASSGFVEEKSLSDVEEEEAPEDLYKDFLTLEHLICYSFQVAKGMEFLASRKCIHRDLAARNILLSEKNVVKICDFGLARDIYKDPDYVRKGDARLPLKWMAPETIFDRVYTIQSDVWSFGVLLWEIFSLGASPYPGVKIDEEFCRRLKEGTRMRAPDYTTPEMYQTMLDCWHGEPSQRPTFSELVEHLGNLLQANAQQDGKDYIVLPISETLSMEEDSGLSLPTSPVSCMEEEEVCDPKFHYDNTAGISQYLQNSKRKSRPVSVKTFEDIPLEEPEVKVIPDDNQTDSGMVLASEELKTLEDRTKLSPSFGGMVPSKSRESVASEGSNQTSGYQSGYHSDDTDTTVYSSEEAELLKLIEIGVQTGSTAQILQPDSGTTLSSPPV
Chain of Fibroblast growth factor receptor 2 (P21802 whole entry): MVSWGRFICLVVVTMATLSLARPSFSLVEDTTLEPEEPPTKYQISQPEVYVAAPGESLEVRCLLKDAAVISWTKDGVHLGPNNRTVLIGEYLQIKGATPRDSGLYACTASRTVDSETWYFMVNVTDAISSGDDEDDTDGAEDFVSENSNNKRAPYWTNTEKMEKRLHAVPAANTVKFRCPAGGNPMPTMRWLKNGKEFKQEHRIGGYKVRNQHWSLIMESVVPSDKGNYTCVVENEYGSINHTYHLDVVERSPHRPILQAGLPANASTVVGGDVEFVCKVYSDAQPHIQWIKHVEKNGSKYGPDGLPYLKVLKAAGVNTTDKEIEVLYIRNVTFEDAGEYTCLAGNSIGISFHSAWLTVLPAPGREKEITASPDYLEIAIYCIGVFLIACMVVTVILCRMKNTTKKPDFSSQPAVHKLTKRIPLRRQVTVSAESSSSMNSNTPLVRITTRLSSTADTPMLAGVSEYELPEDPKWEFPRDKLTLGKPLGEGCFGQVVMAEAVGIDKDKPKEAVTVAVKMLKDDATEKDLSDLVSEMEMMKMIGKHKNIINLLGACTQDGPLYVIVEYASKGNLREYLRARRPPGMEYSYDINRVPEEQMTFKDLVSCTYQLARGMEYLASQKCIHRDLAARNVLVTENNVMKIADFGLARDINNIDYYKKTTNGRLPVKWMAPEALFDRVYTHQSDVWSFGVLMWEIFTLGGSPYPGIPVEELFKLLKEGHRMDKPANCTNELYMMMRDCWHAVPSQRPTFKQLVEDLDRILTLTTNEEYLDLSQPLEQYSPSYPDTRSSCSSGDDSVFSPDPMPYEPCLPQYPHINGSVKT
Chain of Vascular endothelial growth factor receptor 1 (P17948 whole entry): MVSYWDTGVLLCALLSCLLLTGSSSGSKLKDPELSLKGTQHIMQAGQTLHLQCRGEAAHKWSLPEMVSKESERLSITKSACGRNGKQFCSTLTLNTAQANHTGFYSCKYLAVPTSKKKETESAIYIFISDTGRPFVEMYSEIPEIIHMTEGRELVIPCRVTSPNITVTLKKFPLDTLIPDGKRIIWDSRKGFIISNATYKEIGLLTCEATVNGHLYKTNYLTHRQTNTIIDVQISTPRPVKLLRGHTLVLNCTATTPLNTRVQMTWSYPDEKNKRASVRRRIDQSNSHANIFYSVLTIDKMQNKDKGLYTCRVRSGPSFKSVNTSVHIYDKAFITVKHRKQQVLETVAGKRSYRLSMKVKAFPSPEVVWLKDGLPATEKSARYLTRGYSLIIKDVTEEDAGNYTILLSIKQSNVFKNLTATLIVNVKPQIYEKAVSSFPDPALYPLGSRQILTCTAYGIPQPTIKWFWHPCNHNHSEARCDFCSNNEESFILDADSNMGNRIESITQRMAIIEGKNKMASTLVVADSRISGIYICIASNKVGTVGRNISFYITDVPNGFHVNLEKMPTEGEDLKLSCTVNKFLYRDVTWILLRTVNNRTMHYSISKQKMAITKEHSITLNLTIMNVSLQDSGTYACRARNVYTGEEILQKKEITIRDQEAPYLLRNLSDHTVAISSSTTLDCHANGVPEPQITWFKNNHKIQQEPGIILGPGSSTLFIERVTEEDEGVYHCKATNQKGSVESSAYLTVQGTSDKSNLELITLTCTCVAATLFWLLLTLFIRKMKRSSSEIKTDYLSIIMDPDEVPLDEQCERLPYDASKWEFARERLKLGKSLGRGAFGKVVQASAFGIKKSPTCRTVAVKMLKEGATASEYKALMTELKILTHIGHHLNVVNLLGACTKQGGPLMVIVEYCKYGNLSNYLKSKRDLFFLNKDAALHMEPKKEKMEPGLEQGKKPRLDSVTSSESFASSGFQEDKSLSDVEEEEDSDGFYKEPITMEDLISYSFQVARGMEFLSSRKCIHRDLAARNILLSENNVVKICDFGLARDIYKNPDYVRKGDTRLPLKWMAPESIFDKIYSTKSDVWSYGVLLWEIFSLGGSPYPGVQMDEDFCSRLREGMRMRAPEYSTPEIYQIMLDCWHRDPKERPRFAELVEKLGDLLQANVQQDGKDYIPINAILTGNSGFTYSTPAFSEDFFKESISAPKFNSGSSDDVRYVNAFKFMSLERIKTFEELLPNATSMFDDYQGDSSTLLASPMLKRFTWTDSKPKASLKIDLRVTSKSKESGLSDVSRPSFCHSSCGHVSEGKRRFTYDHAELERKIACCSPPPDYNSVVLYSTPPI

In general, IC50 refers to the concentration needed to halve the response being measured. What is called inhibition is the share of the control response that was lost under treatment. `COc1cc2ncnc(Sc3nnc(C)s3)c2cc1OC` gave an IC50 in [1] of 0.032 µM. Moreover, the inhibition in vivo at 100 mg/kg in experiment [2] is 63%; in experiment [5] it was 72%. In experiment [3], the “inhibition (INH)” value worked out at 80%. The inhibition at 10 µM in [4] amounted to 98%.
Turning to `CNC(=O)c1cccc2cc(Oc3ccnc4cc(OCC5(N)CC5)c(OC)cc34)ccc12`, the IC50 in [6] was determined as 0.007 µM; in experiment [7], 0.0825 µM; in [1] it was 0.025 µM; in experiment [8], 0.01 µM; in experiment [9] it was 0.0175 µM.
As to `COc1cc2c(Oc3ccc(Nc4ccc(C(C)(C)C)cc4)cc3)ccnc2cc1OCCNCCO`, the IC50 in [7], in experiment [1], in [10] and in experiment [11] was 0.069 µM each time.
As to `CCN1CCN(Cc2ccc(-c3cc4c(N[C@H](C)c5ccccc5)ncnc4[nH]3)cc2)CC1` [AEE-788], the results for the IC50 in [6] and in experiment [1] were 0.059 µM and 0.077 µM, respectively.
For `COc1cc2nccc(Oc3ccc(NC(=O)NC4CC4)c(Cl)c3)c2cc1C(N)=O` [LENVATINIB], in experiment [8], half-maximal inhibition (IC50) required 0.0052 µM.
The term TGI denotes the reduction of tumour growth relative to the control group. In the case of `NC(=O)c1c(OCc2c(F)cc(Br)cc2F)nsc1NC(=O)NCCCCN1CCCC1` [OSI-632], the TGI in experiment [12] is recorded as 85%. In [13], this molecule registered an IC50 of 0.009 µM.
`O=C(Nc1ccc(OC(F)(F)F)cc1)c1sccc1NCc1ccnc2ccccc12` [OSI-930]: the IC50 in [10] stood at 0.01 µM; in [14] it was 0.041 µM; in [15], 0.022 µM.
As for `CNC(=O)c1cc(COc2nnc(Nc3ccc(Cl)cc3)c3ccoc23)ccn1` [TELATINIB], half-maximal inhibition in [8] (IC50) required 0.004 µM.
